Experimental data published in ChEMBL document CHEMBL4680289, “10-(4-Phenylpiperazine-1-carbonyl)acridin-9(10H)-ones and related compounds: Synthesis, antiproliferative activity and inhibition of tubulin polymerization” (Bioorg Med Chem Lett, 2021).
Calls of active or inactive are those of the source. No cut-off for these calls is given here.

Legend:
K562 [1] = experiment: Antiproliferative activity against human K562 cells assessed as cell growth inhibition measured after 48 hrs by MTT assay; assay type: functional, cell-based; details: K562, 48 h
[2] = Inhibition of porcine brain tubulin polymerization assessed as reduction in tubulin assembly at 37 degreeC measured after 40 mins in presence of GTP by turbidimetric analysis; parameters: species or system Sus scrofa
[3] = target: T1, Tubulin beta (Homo sapiens) (UniProt P68371+Q9H4B7+Q13509+P04350+Q3ZCM7+P07437+Q13885+Q9BVA1+Q9BUF5+A6NNZ2); experiment: Inhibition of N,N'-Ethylenebis(iodoacetamide) binding to beta-tubulin colchicine binding site in human K562 cells assessed as reduction in EBI/beta-tubulin adduct formation preincubated for 2.5 hrs followed by EBI addition and measured after 1.5 hrs by Western blot analysis relative to control; assay type: cell-based; details: time 4.0 hrs, concentration not given here
K562 [4] = experiment: Induction of apoptosis in human K562 cells at 3 uM measured after 48 hrs by Annexin V-FITC/7-AAD staining based flow cytometric analysis; assay type: functional, cell-based
K562 [5] = experiment: Cell cycle arrest in human K562 cells assessed as increase in cell accumulation at G2/M phase measured after 18 hrs by propidium iodide/RNase FACSCalibur staining based flow cytometry; assay type: functional; details: dose 0.003-1 µmol/L
K562 [6] = experiment: Induction of apoptosis in human K562 cells at 30 nM measured after 48 hrs by Annexin V-FITC/7-AAD staining based flow cytometric analysis; assay type: functional, cell-based
5637 = experiment: Antiproliferative activity against human 5637 cells assessed as cell growth inhibition measured after 72 hrs by sulforhodamine B assay; assay type: functional
MV4-11 = experiment: Antiproliferative activity against human MV4-11 cells assessed as cell growth inhibition measured after 72 hrs by sulforhodamine B assay; assay type: functional
SK-N-AS = experiment: Antiproliferative activity against human SK-N-AS cells assessed as cell growth inhibition measured after 72 hrs by sulforhodamine B assay; assay type: functional
HT-29 = experiment: Antiproliferative activity against human HT-29 cells assessed as cell growth inhibition measured after 72 hrs by sulforhodamine B assay; assay type: functional
Ramos = experiment: Antiproliferative activity against human Ramos cells assessed as cell growth inhibition measured after 72 hrs by sulforhodamine B assay; assay type: functional
SNB-75 = experiment: Antiproliferative activity against human SNB-75 cells assessed as cell growth inhibition measured after 72 hrs by sulforhodamine B assay; assay type: functional
BXPC-3 = experiment: Antiproliferative activity against human BXPC-3 cells assessed as cell growth inhibition measured after 72 hrs by sulforhodamine B assay; assay type: functional
PANC-1 = experiment: Antiproliferative activity against human PANC-1 cells assessed as cell growth inhibition measured after 72 hrs by sulforhodamine B assay; assay type: functional
[7] = Cytotoxicity against human PBMC cells assessed as cell growth inhibition measured after 72 hrs by sulforhodamine B assay; assay type: cell-based
MG-63 = experiment: Antiproliferative activity against human MG-63 cells assessed as cell growth inhibition measured after 72 hrs by sulforhodamine B assay; assay type: functional
[8] = Cytotoxicity against human IMR-90 cells assessed as cell growth inhibition measured after 72 hrs by sulforhodamine B assay; assay type: cell-based
[9] = target: T1, Tubulin beta (Homo sapiens); experiment: Inhibition of N,N'-Ethylenebis(iodoacetamide) binding to beta-tubulin colchicine binding site in human K562 cells assessed as reduction in EBI/beta-tubulin adduct formation at 1 to 10 uM preincubated for 2.5 hrs followed by EBI addition and measured after 1.5 hrs by Western blot analysis; assay type: cell-based; details: dose 1-10 µM, time 4.0 hrs
Ca-Ski = experiment: Antiproliferative activity against human Ca-Ski cells assessed as cell growth inhibition measured after 72 hrs by sulforhodamine B assay; assay type: functional
HT-1080 = experiment: Antiproliferative activity against human HT-1080 cells assessed as cell growth inhibition measured after 72 hrs by sulforhodamine B assay; assay type: functional
L-363 = experiment: Antiproliferative activity against human L-363 cells assessed as cell growth inhibition measured after 72 hrs by sulforhodamine B assay; assay type: functional
[10] = Antiproliferative activity against human RDES cells assessed as cell growth inhibition measured after 72 hrs by sulforhodamine B assay; assay type: functional; details: RD-ES
DU-145 = experiment: Antiproliferative activity against human DU-145 cells assessed as cell growth inhibition measured after 72 hrs by sulforhodamine B assay; assay type: functional
K562 [11] = experiment: Cell cycle arrest in human K562 cells assessed as increase in cell accumulation at G2/M phase at < 30 nM measured after 18 hrs by propidium iodide/RNase FACSCalibur staining based flow cytometry; assay type: functional; details: dose nM <30, time 18.0 hrs
NCI-H460 = experiment: Antiproliferative activity against human NCI-H460 cells assessed as cell growth inhibition measured after 72 hrs by sulforhodamine B assay; assay type: functional

| SMILES | IC50 (K562 [1]) [nM] | IC50 [2] [nM] | further results |
| --- | --- | --- | --- |
| COc1ccc(C(=O)n2c3ccccc3c(=O)c3cc(OC)ccc32)cc1 | 3900 | 1400 | – |
| COc1ccc2c(c1)c(=O)c1ccccc1n2C(=O)N1CCN(c2ccccc2OC)CC1 | 1100 | 3500 | – |
| COc1cccc(N2CCN(C(=O)n3c4ccccc4c(=O)c4cc(OC)ccc43)CC2)c1 | 330 | 820 | – |
| COc1ccc(C(=O)n2c3ccccc3c(=O)c3ccccc32)cc1 | 1300 | 1600 | inhibition [3]: 100%; Activity (K562 [4]): Active; Activity (K562 [5]): Dose-dependent effect |
| COc1cccc(C(=O)n2c3ccccc3c(=O)c3ccccc32)c1 | > 10000 | > 10000 | – |
| COc1cc2c(c(OC)c1OC)-c1ccc(OC)c(=O)cc1[C@@H](NC(C)=O)CC2 [COLCHICINE] | 13 | – | Activity (K562 [6]): Active |
| Nc1cccc(N2CCN(C(=O)n3c4ccccc4c(=O)c4ccccc43)CC2)c1 | 900 | 1300 | – |
| O=C(N1CCN(c2ccc(Cl)cc2)CC1)n1c2ccccc2c(=O)c2ccccc21 | 6100 | > 10000 | – |
| COc1cccc(N2CCN(C(=O)n3c4ccccc4c(=O)c4cnccc43)CC2)c1 | 230 | 720 | – |
| CC[C@]1(O)C[C@H]2CN(CCc3c([nH]c4ccccc34)[C@@](C(=O)OC)(c3cc4c(cc3OC)N(C)[C@H]3[C@@](O)(C(=O)OC)[C@H](OC(C)=O)[C@]5(CC)C=CCN6CC[C@]43[C@@H]65)C2)C1 | 12 | 130 | – |
| COc1ccc(C(=O)n2c3ccccc3c(=O)c3ccccc32)cc1OC | > 10000 | > 10000 | – |
| O=C(N1CCN(c2cccc(Cl)c2)CC1)n1c2ccccc2c(=O)c2ccccc21 | 38 | 600 | – |
| O=C(N1CCN(c2cccc(F)c2)CC1)n1c2ccccc2c(=O)c2ccccc21 | 89 | 710 | – |
| O=C(N1CCN(c2ccccc2Cl)CC1)n1c2ccccc2c(=O)c2ccccc21 | 4800 | 7100 | – |
| COc1ccc(C(=O)n2c3ccccc3c(=O)c3cc(C#N)ccc32)cc1 | 1300 | 1700 | – |
| COc1ccccc1N1CCN(C(=O)n2c3ccccc3c(=O)c3cc(C#N)ccc32)CC1 | 830 | 3400 | – |
| COc1cc(N2CCN(C(=O)n3c4ccccc4c(=O)c4ccccc43)CC2)cc(OC)c1OC | > 10000 | > 10000 | – |
| COc1cccc(N2CCN(C(=O)n3c4ccccc4c(=O)c4cc(C#N)ccc43)CC2)c1 | 190 | – | – |
| COc1cccc(N2CCN(C(=O)n3c4ccccc4c(=O)c4cc([N+](=O)[O-])ccc43)CC2)c1 | > 10000 | 4200 | – |
| COc1ccc2c(c1)c(=O)c1cc(C#N)ccc1n2C(=O)N1CCN(c2ccccc2OC)CC1 | > 10000 | > 10000 | – |
| COc1ccc(OC)c(N2CCN(C(=O)n3c4ccccc4c(=O)c4ccccc43)CC2)c1 | 60 | 440 | – |
| COc1ccccc1N1CCN(C(=O)n2c3ccccc3c(=O)c3cnccc32)CC1 | 670 | 3900 | – |

| SMILES | IC50 (K562 [1]) [nM] | IC50 [2] [nM] | further results |
| --- | --- | --- | --- |
| N#Cc1cccc(N2CCN(C(=O)n3c4ccccc4c(=O)c4ccccc43)CC2)c1 | 45 | 520 | – |
| COc1ccccc1N1CCN(C(=O)n2c3ccccc3c(=O)c3ccccc32)CC1 | 55 | 530 | – |
| COC(=O)Nc1nc2cc(C(=O)c3cccs3)ccc2[nH]1 [NOCODAZOLE] | 220 | 760 | – |
| COc1ccc(N2CCN(C(=O)n3c4ccccc4c(=O)c4ccccc43)CC2)c(OC)c1 | 3000 | 4700 | – |
| O=C(c1ccccc1)n1c2ccccc2c(=O)c2ccccc21 | > 10000 | > 10000 | – |
| COc1cccc(N2CCN(C(=O)n3c4ccccc4c(=O)c4cc(N)ccc43)CC2)c1 | 440 | 1250 | – |
| COc1ccccc1C(=O)n1c2ccccc2c(=O)c2ccccc21 | 3900 | 5500 | – |
| COc1ccccc1N1CCN(C(=O)n2c3ccccc3c(=O)c3cc(N)ccc32)CC1 | 1300 | 3100 | – |
| COc1ccc(N2CCN(C(=O)n3c4ccccc4c(=O)c4ccccc43)CC2)cc1 | > 10000 | > 10000 | – |
| COc1cccc(N2CCN(C(=O)n3c4ccccc4c(=O)c4cccnc43)CC2)c1 | 32 | 450 | – |
| COc1ccccc1N1CCN(C(=O)n2c3ccccc3c(=O)c3cccnc32)CC1 | 190 | 1340 | – |
| O=C(N1CCN(c2cccc([N+](=O)[O-])c2)CC1)n1c2ccccc2c(=O)c2ccccc21 | 200 | 560 | – |
| COc1cccc(N2CCN(C(=O)n3c4ccccc4c(=O)c4ccccc43)CC2)c1 | 26 | 330 | GI50 5637: 2.1 nM; GI50 (MV4-11): 13.5 nM; GI50 (SK-N-AS): 1.3 nM; GI50 (HT-29): 2.1 nM; GI50 (Ramos): 18 nM; GI50 (SNB-75): 12.4 nM; GI50 (BXPC-3): 1.9 nM; GI50 (PANC-1): 2.1 nM; GI50 at 72 h [7]: > 10000 nM; GI50 (MG-63): 2 nM; GI50 at 72 h [8]: 1.4 nM; inhibition [9]: Active; GI50 (Ca-Ski): 12.3 nM; GI50 (HT-1080): 2.1 nM; GI50 (L-363): 14.8 nM; GI50 [10]: 29.8 nM; Activity (K562 [5]): Dose-dependent effect; GI50 (DU-145): 17.9 nM; Activity (K562 [11]): Active; GI50 (NCI-H460): 13.2 nM |
| COc1ccc(C(=O)n2c3ccccc3c(=O)c3ccccc32)cc1OCc1ccccc1 | > 10000 | > 10000 | – |
| COc1ccc(C(=O)n2c3ccccc3c(=O)c3ccccc32)cc1O | 1300 | 680 | – |
| O=C(N1CCN(c2cccc(Br)c2)CC1)n1c2ccccc2c(=O)c2ccccc21 | 39 | 690 | – |
| O=C(N1CCN(c2cccnc2)CC1)n1c2ccccc2c(=O)c2ccccc21 | 620 | 2900 | – |
| Nc1ccc(N2CCN(C(=O)n3c4ccccc4c(=O)c4ccccc43)CC2)cc1 | > 10000 | > 10000 | – |
| O=C(N1CCN(c2ccc([N+](=O)[O-])cc2)CC1)n1c2ccccc2c(=O)c2ccccc21 | > 10000 | > 10000 | – |
| COc1ccccc1N1CCN(C(=O)n2c3ccccc3c(=O)c3cc([N+](=O)[O-])ccc32)CC1 | > 10000 | > 10000 | – |
| O=C(N1CCN(c2ccccc2)CC1)n1c2ccccc2c(=O)c2ccccc21 | 390 | 900 | – |
| COc1cccc(N2CCN(C(=O)n3c4ccc(C#N)cc4c(=O)c4cc(OC)ccc43)CC2)c1 | > 10000 | > 10000 | – |
